pIC50: −log10 of the molar value. Structures can show the parent of a compound that is named as a salt. Where two headings read alike, the source gives them in different places.
Legend:
human plasma kallikrein = human plasma kallikrein (Homo sapiens, UniProt P03952); assay: Anti-plasma kallikrein activity: inhibition of S-2302 decomposition; type: biochemical; conditions: S-2302 substrate, read-out: Plasma Kallikrein S-2302 (I50)
Protocol: Determination of inhibition activity for S-2302 decomposition
An inhibitor sample is dissolved in a 0.05M Tris-hydrochloric acid buffer solution (pH=7.8) to make the total volume to 400 μl. To this solution, 50 μl of a 2 mM S-2302 solution is added and the mixture is incubated at a temperature of 37° C. for 5 minutes in a constant temperature bath. Then, 50 μl of a 0.12 unit/ml human plasma kallikrein is added and the mixture is incubated at a temperature of 37° C. for 5 minutes. Thereafter, 50 μl of 50% acetic acid is added to terminate the reaction. The absorbance of the p-nitroaniline formed in the reaction mixture is measured at 405 nm. Thus, the concentration I50 (μmol) of the inhibitor sample, at which the absorbance is one half (i.e., 1/2) of that obtained in the absence of the inhibitor sample, is determined.

bovine thrombin [1] = target: T1, bovine thrombin (Bos taurus, UniProt P00735); assay: Antithrombin activity: inhibition of fibrin formation from fibrinogen; type: biochemical
Protocol: (i) Determination of inhibition activity against fibrin formation
An inhibitor sample is dissolved in a 0.18M borate-physiological salt buffer solution (pH=7.4) to make the total volume to 500 μl. To this solution, 400 μl of a 0.2% bovine fibrinogen solution and 100 μl of a 4 unit/ml bovine thrombin solution are added at a temperature of 37° C. in a constant temperature bath. Thus, a coagulation time is determined. The inhibitor concentration I50 (μmol), at which the coagulation time obtained in the absence of the inhibitor is extended twice, is determined.

bovine thrombin [2] = target: T1, bovine thrombin; assay: Antithrombin activity: inhibition of S-2238 decomposition; type: biochemical
Protocol: (ii) Determination of inhibition activity for S-2238 decomposition
An inhibitor sample is dissolved in a 0.05M Tris-hydrochloric acid buffer solution (pH=8.3) to make a total volume of 400 μl. To this solution, 50 μl of a 0.2 mM S-2238 solution is added and the mixture is incubated at a temperature of 37° C. for 5 minutes in a constant temperature bath. Then, 50 μl of a 0.2 unit/ml bovine thrombin solution is added thereto and the absorbance, at 405 nm, of the p-nitroaniline formed per minute is determined at a temperature of 37° C. by using the so-called initial velocity method. Thus, the concentration I50 (μmol) of the inhibitor sample at which the absorbance is one half (i.e., 1/2) of that obtained in the absence of the inhibitor sample, is determined.

human plasmin [3] = target: T2, human plasmin (Homo sapiens, UniProt P00747); assay: biochemical; conditions: read-out: Plasmin S-2251 (I50)
T2 sequence (P00747 581-810 limits assumed): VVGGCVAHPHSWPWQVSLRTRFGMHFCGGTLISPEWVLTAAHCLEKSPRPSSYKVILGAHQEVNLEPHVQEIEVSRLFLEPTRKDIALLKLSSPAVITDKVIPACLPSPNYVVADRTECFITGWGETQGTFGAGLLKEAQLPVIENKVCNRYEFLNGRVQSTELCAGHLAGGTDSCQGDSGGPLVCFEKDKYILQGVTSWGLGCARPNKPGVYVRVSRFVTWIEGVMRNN
T2 sequence (P00747 97-580 partner limits assumed): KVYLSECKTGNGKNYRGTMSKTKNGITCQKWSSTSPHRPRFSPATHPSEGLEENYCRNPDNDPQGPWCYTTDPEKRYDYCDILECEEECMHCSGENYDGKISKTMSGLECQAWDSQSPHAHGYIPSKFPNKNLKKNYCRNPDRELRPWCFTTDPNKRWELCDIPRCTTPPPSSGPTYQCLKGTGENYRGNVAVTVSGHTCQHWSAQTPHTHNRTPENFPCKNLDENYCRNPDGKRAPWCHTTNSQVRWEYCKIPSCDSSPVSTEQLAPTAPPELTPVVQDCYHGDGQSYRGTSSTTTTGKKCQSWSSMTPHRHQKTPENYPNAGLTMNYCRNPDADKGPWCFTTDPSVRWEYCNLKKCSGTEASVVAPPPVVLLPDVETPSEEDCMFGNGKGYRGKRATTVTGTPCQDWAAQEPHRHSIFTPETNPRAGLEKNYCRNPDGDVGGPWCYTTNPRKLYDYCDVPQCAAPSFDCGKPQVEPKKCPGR
Protocol: An inhibitor sample is dissolved in a 0.05M Tris-hydrochloric acid buffer solution (pH=7.4) to make the total volume of 400 μl. […] Then, 50 μl of a 0.2 casein unit/ml human plasmin is added and the mixture is incubated at a temperature of 37° C. for 4 minutes. Thereafter, the reaction is stopped by adding 50 μl of 50% acetic acid.
Thus, the concentration I50 (μmol) of the inhibitor sample, at which the absorbance is one half (i.e., 1/2) of that obtained in the absence of the inhibitor, is determined.

human urokinase = human urokinase (Homo sapiens, UniProt P00749); assay: biochemical; conditions: S-2444 substrate, read-out: Urokinase S-2444 (I50)
Protocol: Determination of inhibition activity for S-2444 decomposition
An inhibitor sample is dissolved in a 0.05M Tris-hydrochloric acid buffer solution (pH=8.8) to make the total volume to 400 μl. To this solution, 50 μl of a 1 mM S-2444 solution is added and the mixture is incubated at a temperature of 37° C. for 5 minutes in a constant temperature bath. Then, 50 μl of a 500 unit/ml human urokinase is added and the mixture is incubated at a temperature of 37° C. for 5 minutes. Thereafter, 50 μl of 50% acetic acid is added to terminate the reaction. The absorbance of the p-nitroaniline formed in the reaction mixture is measured at 405 nm. Thus, the concentration I50 (μmol) of the inhibitor sample, at which the absorbance is one half (i.e., 1/2) of that obtained in the absence of the inhibitor sample, is determined.

bovine trypsin = target: T3, bovine trypsin (Bos taurus, UniProt P00760); assay: Antitrypsin activity: inhibition of S-2238 decomposition; type: biochemical; conditions: S-2238 substrate, read-out: Trypsin S-2238 (I50)
T3 sequence (P00760 24-246): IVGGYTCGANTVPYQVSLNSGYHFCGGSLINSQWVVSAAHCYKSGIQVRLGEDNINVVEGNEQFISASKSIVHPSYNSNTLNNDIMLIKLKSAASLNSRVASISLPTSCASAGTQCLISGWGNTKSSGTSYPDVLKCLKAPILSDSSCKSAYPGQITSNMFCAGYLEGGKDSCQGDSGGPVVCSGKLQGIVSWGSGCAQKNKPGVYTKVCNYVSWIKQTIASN

human plasmin [4] = target: T2, human plasmin; assay: Antiplasmin activity: inhibition of fibrin decomposition; type: biochemical; conditions: Table 2; concentration at which fibrin dissolution time is extended twice, pH 7.4, 37° C.; read-out: Plasmin Fibrin (I50)
Protocol: (i) Determination of inhibition activity for fibrin decomposition
An inhibitor sample is dissolved in a 0.18M borate-physiological salt buffer solution (pH=7.4) to make the total volume to 600 μl. To this buffer solution, 200 μl of a 0.2% bovine fibrinogen, 100 μl of a 0.3 casein unit/ml human plasmin solution, and 100 μl of a 50 unit/ml bovine thrombin solution, all dissolved in the above-mentioned buffer, are added at a temperature of 37° C. in a constant temperature bath. Then, the dissolution time of the fibrin mass formed above is determined.

[5] = Table 2, S-2238 substrate, pH 8.3, 37° C., read-out: Thrombin S-2238 (I50)

Chain of human plasma kallikrein (P03952 391-638 limits assumed): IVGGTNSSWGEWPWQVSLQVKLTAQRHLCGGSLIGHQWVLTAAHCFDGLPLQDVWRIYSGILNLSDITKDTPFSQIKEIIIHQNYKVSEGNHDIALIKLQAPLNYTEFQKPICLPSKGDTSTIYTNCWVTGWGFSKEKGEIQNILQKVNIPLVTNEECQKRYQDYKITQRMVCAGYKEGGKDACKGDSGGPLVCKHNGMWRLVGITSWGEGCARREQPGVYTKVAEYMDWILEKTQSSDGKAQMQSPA
Chain of human plasma kallikrein (P03952 20-390 partner limits assumed): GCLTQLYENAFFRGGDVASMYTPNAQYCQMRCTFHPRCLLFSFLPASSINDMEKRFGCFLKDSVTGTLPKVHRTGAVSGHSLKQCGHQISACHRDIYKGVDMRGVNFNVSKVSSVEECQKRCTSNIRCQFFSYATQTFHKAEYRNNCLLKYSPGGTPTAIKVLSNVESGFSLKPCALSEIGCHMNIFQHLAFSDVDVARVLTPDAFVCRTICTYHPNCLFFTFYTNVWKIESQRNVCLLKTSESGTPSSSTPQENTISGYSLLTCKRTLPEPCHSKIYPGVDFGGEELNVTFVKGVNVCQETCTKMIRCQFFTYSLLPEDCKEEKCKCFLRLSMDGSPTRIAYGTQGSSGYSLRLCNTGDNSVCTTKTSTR

pIC50 (human plasma kallikrein; Table 2, pH 7.8, 37° C.) | pIC50 (bovine thrombin [1]) | pIC50 (bovine thrombin [2]; [5]) | pIC50 (human plasmin [3]) | pIC50 (human urokinase; Table 2, pH 8.8, 37° C.) | pIC50 (bovine trypsin; Table 2, pH 8.1, 37° C.) | pIC50 (human plasmin [4]) | pIC50 (bovine thrombin [2]) | pIC50 (human plasma kallikrein; Table 4, comparative compounds of Table 3, pH 7.8) | pIC50 (bovine thrombin [1]; Table 4, comparative compounds of Table 3, coagulation time extended twice, read-out: Thrombin Fibrinogen (I50)) | pIC50 (bovine thrombin [2]; Table 4, comparative compounds of Table 3, S-2238 substrate, pH 8.3, read-out: Thrombin S-2238 (I50)) | pIC50 (human urokinase; Table 4, comparative compounds of Table 3, pH 8.8) | pIC50 (bovine trypsin; Table 4, comparative compounds of Table 3, pH 8.1) | SMILES
5.72 | < 4.30 | < 4.00 | 4.57 | 4.96 | 6.52 | 4.40 |  |  |  |  |  |  | NC[C@H]1CC[C@H](C(=O)N[C@@H](Cc2ccccc2)C(=O)Nc2ccc(C(=O)c3ccccc3)cc2)CC1 [Compound No. 1]
 | < 3.00 | < 3.00 |  |  | 5.89 |  |  |  |  |  |  |  | CC(=O)c1ccc(NC(=O)[C@H](Cc2ccccc2)NC(=O)[C@H]2CC[C@H](CN)CC2)cc1 [Compound No. 2, N-(trans-4-aminomethylcyclohexylcarbonyl)-L-phenylalanine 4-acetylanilide]
6.20 | < 4.00 | < 3.70 | 5.74 | 4.51 | 6.11 | 6.40 |  |  |  |  |  |  | CC(=O)c1ccc(NC(=O)[C@H](Cc2ccc(OCc3ccccc3)cc2)NC(=O)[C@H]2CC[C@H](CN)CC2)cc1 [Compound No. 3, N-(trans-4-aminomethylcyclohexylcarbonyl)-4-benzyloxy-L-phenylalanine 4-acetylanilide]
5.70 | < 3.30 | 3.64 | 5.89 | 4.38 | 5.96 | 5.34 |  |  |  |  |  |  | COc1ccc(C[C@H](NC(=O)[C@H]2CC[C@H](CN)CC2)C(=O)Nc2ccc(C(C)=O)cc2)cc1 [Compound No. 6, N-(trans-4-aminomethylcyclohexylcarbonyl)-4-methoxy-L-phenylalanine 4-acetylanilide]
 | < 4.30 |  |  |  | 6.00 | 7.02 | < 4.00 |  |  |  |  |  | CC(=O)c1ccc(NC(=O)[C@H](Cc2ccc(OCc3cccc(Cl)c3)cc2)NC(=O)[C@H]2CC[C@H](CN)CC2)cc1 [Compound No. 35, N-(trans-4-aminomethylcyclohexylcarbonyl)-4-(3-chlorobenzyloxy)-L-phenylalanine 4-acetylanilide methane sulfonate]
5.35 | < 3.70 | < 3.40 | 5.05 | 3.89 | 5.12 | 6.00 |  |  |  |  |  |  | NC[C@H]1CC[C@H](C(=O)N[C@@H](Cc2ccc(OCc3ccccc3)cc2)C(=O)Nc2ccc(S(N)(=O)=O)cc2)CC1 [Compound No. 47, N-(trans-4-aminomethylcyclohexylcarbonyl)-4-benzyloxy-L-phenylalanine 4-sulfamoylanilide hydrochloride]
6.38 | < 3.60 | < 3.90 | 5.85 | 4.40 | 6.17 | 6.74 |  |  |  |  |  |  | NC[C@H]1CC[C@H](C(=O)N[C@@H](Cc2ccc(OCc3ccccc3)cc2)C(=O)Nc2ccnc(Cl)c2)CC1 [Compound No. 59, N-(trans-4-aminomethylcyclohexylcarbonyl)-4-benzyloxy-L-phenylalanine 4-(2-chloro)pyridylamide hydrochloride]
4.77 | < 4.30 | < 4.00 | 5.96 | < 3.40 | 6.35 | 6.48 |  |  |  |  |  |  | CC1CCC(NC(=O)[C@H](Cc2ccc(OCc3ccccc3)cc2)NC(=O)c2ccc(CN)cc2)CC1C (stereo partly drawn) [Compound No. 80, N-(4-aminomethylbenzoyl)-4-benzyloxy-L-phenylalanine 3,4-dimethylcyclohexylamide hydrochloride]
6.85 | < 4.00 | < 3.40 | 6.20 | 5.10 | 5.82 | 6.57 |  |  |  |  |  |  | CC(=O)c1ccc(NC(=O)[C@H](Cc2ccc(Oc3ccc([N+](=O)[O-])cc3)cc2)NC(=O)[C@H]2CC[C@H](CN)CC2)cc1 [Compound No. 95, N-(trans-4-aminomethylcyclohexylcarbonyl)-4-(4-nitrophenoxy)-L-phenylalanine 4-acetylanilide hydrochloride]
3.46 | < 3.60 | < 4.00 | 4.54 | < 3.30 | 4.66 | 4.74 |  |  |  |  |  |  | NCc1ccc(C(=O)N[C@@H](Cc2ccc(OCc3ccccc3)cc2)C(=O)NCc2ccncc2)cc1 [Compound No. 96, N-(4-aminomethylbenzoyl)-4-benzyloxy-L-phenylalanine 4-picolylamide dihydrochloride]
 |  |  |  |  |  |  |  | < 3.00 | < 3.00 | < 3.00 | < 3.00 | < 3.00 | NC[C@H]1CC[C@H](C(=O)O)CC1 [Table 3 Compound No. 1, tranexamic acid, reference compound]
 | < 3.30 | < 3.00 |  |  | 5.74 | 6.17 |  |  |  |  |  |  | NC[C@H]1CC[C@H](C(=O)N[C@@H](Cc2ccc(OCc3ccccc3)cc2)C(=O)Nc2ccncc2)CC1 [compound 40]
< 4.30 |  | < 4.30 | 5.28 | < 3.52 | 5.24 | 5.96 |  |  |  |  |  |  | NCC1CCC(C(=O)NC(Cc2ccc(OCc3ccccc3)cc2)C(=O)NCc2ccc(F)cc2)CC1 (stereo not drawn) [compound 111]
< 3.00 | < 3.00 | < 3.00 | < 3.00 | < 3.00 |  | 3.72 |  |  |  |  |  |  | NCc1ccc(C(=O)N[C@@H](Cc2ccc(OCc3ccccc3)cc2)C(=O)Nc2ccc(C(=O)O)cc2)cc1 [compound 139]
4.74 | < 3.70 |  | 5.06 | < 4.00 |  | 5.60 | < 3.70 |  |  |  |  |  | COc1ccc(NC(=O)[C@H](Cc2ccc(OCc3ccccc3)cc2)NC(=O)c2ccc(CN)cc2)cn1 [compound 140]
6.12 | < 4.30 | 4.07 | 6.25 | 4.51 |  | 7.12 |  |  |  |  |  |  | CC(=O)c1ccc(NC(=O)[C@H](Cc2ccc(OC(=O)OCc3ccccc3Cl)cc2)NC(=O)[C@H]2CC[C@H](CN)CC2)cc1 [compound 145]
6.24 | < 4.00 | < 4.00 | 6.19 | 4.35 |  | 6.54 |  |  |  |  |  |  | CC(=O)c1ccc(NC(=O)[C@H](Cc2ccc(OC(=O)OCc3ccccc3)cc2)NC(=O)[C@H]2CC[C@H](CN)CC2)cc1 [compound 146]
